Active and inactive are the calls of the source. The calls are words filed in the database; no cut-off is given here.
Experiments:
Klebsiella pneumoniae [1] = experiment: Hormesis activity against Klebsiella pneumoniae deficient in KmrA gene expression assessed as increase in antibiotic MIC by measuring azithromycin MIC at 3 ug/ml incubated for 12 hrs by OD600 based analysis (reference value: 0.78125 ug/ml); assay type: ADME, organism-based; settings: in vivo, dose 3 µg/ml
Enterobacter cloacae [2] = experiment: Hormesis activity against overnight compound-treated Enterobacter cloacae assessed as increase in antibiotic MIC by measuring ciprofloxacin MIC at 3 ug/ml incubated for 12 hrs by OD600 based analysis (reference value: 0.0390625 ug/ml); assay type: ADME, organism-based; settings: in vivo, dose 3 µg/ml
Klebsiella pneumoniae [3] = experiment: Hormesis activity against Klebsiella pneumonia assessed as promotion of delayed bacterial growth at 25 to 50 ug/ml measured for 24 hrs in presence of 1 ug/ml tetracycline by OD600 based analysis; assay type: organism-based; settings: in vivo, dose 25-50 µg/ml
Klebsiella pneumoniae [4] = experiment: Hormesis activity against overnight compound-treated Klebsiella pneumoniae deficient in KmrA gene expression assessed as increase in antibiotic MIC by measuring meropenem MIC at 3 ug/ml incubated for 12 hrs by OD600 based analysis (reference value: 0.39625 ug/ml); assay type: ADME, organism-based; settings: in vivo, dose 3 µg/ml
Acinetobacter baumannii [5] = experiment: Hormesis activity against overnight-compound treated Acinetobacter baumannii assessed as increase in antibiotic MIC by measuring cefotaxime MIC at 3 ug/ml incubated for 12 hrs by OD600 based analysis (reference value: 12.5 ug/ml); assay type: ADME, organism-based; settings: in vivo, dose 3 µg/ml
Klebsiella pneumoniae [6] = experiment: Hormesis activity against overnight compound-treated Klebsiella pneumoniae deficient in KmrA gene expression assessed as increase in antibiotic MIC by measuring ciprofloxacin MIC at 3 ug/ml incubated for 12 hrs by OD600 based analysis (reference value: 0.0390625 ug/ml); assay type: ADME, organism-based; settings: in vivo, dose 3 µg/ml
Enterobacter cloacae [7] = experiment: Hormesis activity against Enterobacter cloacae assessed as increase in antibiotic MIC by measuring azithromycin MIC at 3 ug/ml incubated for 12 hrs by OD600 based analysis (reference value: 6.25 ug/ml); assay type: ADME, organism-based; settings: in vivo, dose 3 µg/ml
Acinetobacter baumannii [8] = experiment: Hormesis activity against overnight-compound treated Acinetobacter baumannii assessed as increase in antibiotic MIC by measuring streptomycin MIC at 3 ug/ml incubated for 12 hrs by OD600 based analysis (reference value: 400 ug/ml); assay type: ADME, organism-based; settings: in vivo, dose 3 µg/ml
Klebsiella pneumoniae [9] = experiment: Hormesis activity against overnight compound-treated Klebsiella pneumoniae deficient in KmrA gene expression assessed as increase in antibiotic MIC by measuring hygromycinMIC at 3 ug/ml incubated for 12 hrs by OD600 based analysis (reference value: 12.5 ug/ml); assay type: ADME, organism-based; settings: in vivo, dose 3 µg/ml
Klebsiella pneumoniae [10] = experiment: Hormesis activity against Klebsiella pneumonia assessed as inhibition of bacterial growth by measuring shortened logarithmic growth phase at 25 to 50 ug/ml measured after 24 hrs by OD600 based analysis; assay type: functional, organism-based; settings: dose 25-50 µg/ml
Acinetobacter baumannii [11] = experiment: Hormesis activity against Acinetobacter baumannii assessed as increase in antibiotic MIC by measuring atreonamMIC at 3 ug/ml incubated for 12 hrs by OD600 based analysis (reference value: 6.25 ug/ml); assay type: ADME, organism-based; settings: in vivo, dose 3 µg/ml
Enterobacter cloacae [12] = experiment: Hormesis activity against overnight compound-treated Enterobacter cloacae assessed as increase in antibiotic MIC by measuring cefotaxime MIC at 3 ug/ml incubated for 12 hrs by OD600 based analysis (reference value: 1.5625 ug/ml); assay type: ADME, organism-based; settings: in vivo, dose 3 µg/ml
Klebsiella pneumoniae [13] = experiment: Hormesis activity against overnight compound-treated Klebsiella pneumoniae deficient in KmrA gene expression assessed as increase in antibiotic MIC by measuring azithromycin MIC at 3 ug/ml incubated for 12 hrs by OD600 based analysis (reference value: 0.78125 ug/ml); assay type: ADME, organism-based; settings: in vivo, dose 3 µg/ml
Klebsiella pneumoniae [14] = experiment: Hormesis activity against Klebsiella pneumoniae assessed as increase in antibiotic MIC by measuring azithromycin MIC at 3 ug/ml incubated for 12 hrs by OD600 based analysis (reference value: 1.5625 ug/ml); assay type: ADME, organism-based; settings: in vivo, dose 3 µg/ml
Acinetobacter baumannii [15] = experiment: Hormesis activity against Acinetobacter baumannii assessed as increase in antibiotic MIC by measuring tetracycline MIC at 3 ug/ml incubated for 12 hrs by OD600 based analysis (reference value: 240 ug/ml); assay type: ADME, organism-based; settings: in vivo, dose 3 µg/ml
Klebsiella pneumoniae [16] = experiment: Hormesis activity against overnight compound-treated Klebsiella pneumoniae deficient in KmrA gene expression assessed as increase in antibiotic MIC by measuring cefotaxime MIC at 3 ug/ml incubated for 12 hrs by OD600 based analysis (reference value: 0.39625 ug/ml); assay type: ADME, organism-based; settings: in vivo, dose 3 µg/ml
Acinetobacter baumannii [17] = experiment: Hormesis activity against overnight-compound treated Acinetobacter baumannii assessed as increase in antibiotic MIC by measuring chloramphenicol MIC at 3 ug/ml incubated for 12 hrs by OD600 based analysis (reference value: 6.25 ug/ml); assay type: ADME, organism-based; settings: in vivo, dose 3 µg/ml
Acinetobacter baumannii [18] = experiment: Hormesis activity against Acinetobacter baumannii assessed as promotion of bacterial growth by measuring prolonged logarithmic growth phase at 3 to 50 ug/ml measured for 24 hrs by OD600 based analysis; assay type: organism-based; settings: in vivo, dose 3-50 µg/ml
Acinetobacter baumannii [19] = experiment: Hormesis activity against Acinetobacter baumannii assessed as promotion of bacterial growth at 3 to 50 ug/ml measured for 24 hrs in presence of 80 to 120 ug/ml tetracycline by OD600 based analysis; assay type: organism-based; settings: in vivo, dose 3-50 µg/ml
Acinetobacter baumannii [20] = experiment: Hormesis activity against Acinetobacter baumannii assessed as increase in antibiotic MIC by measuring meropenem MIC at 3 ug/ml incubated for 12 hrs by OD600 based analysis (reference value: 0.625 ug/ml); assay type: ADME, organism-based; settings: in vivo, dose 3 µg/ml
Klebsiella pneumoniae [21] = experiment: Hormesis activity against Klebsiella pneumoniae deficient in KmrA gene expression assessed as increase in antibiotic MIC by measuring hygromycinMIC at 3 ug/ml incubated for 12 hrs by OD600 based analysis (reference value: 12.5 ug/ml); assay type: ADME, organism-based; settings: in vivo, dose 3 µg/ml
Acinetobacter baumannii [22] = experiment: Hormesis activity against overnight-compound treated Acinetobacter baumannii assessed as increase in antibiotic MIC by measuring tetracycline MIC at 3 ug/ml incubated for 12 hrs by OD600 based analysis (reference value: 240 ug/ml); assay type: ADME, organism-based; settings: in vivo, dose 3 µg/ml
Acinetobacter baumannii [23] = experiment: Hormesis activity against overnight-compound treated Acinetobacter baumannii assessed as increase in antibiotic MIC by measuring atreonamMIC at 3 ug/ml incubated for 12 hrs by OD600 based analysis (reference value: 6.25 ug/ml); assay type: ADME, organism-based; settings: in vivo, dose 3 µg/ml
Klebsiella pneumoniae [24] = experiment: Hormesis activity against overnight compound-treated Klebsiella pneumoniae deficient in KmrA gene expression assessed as increase in antibiotic MIC by measuring ampicillin MIC at 3 ug/ml incubated for 12 hrs by OD600 based analysis (reference value: 12.5 ug/ml); assay type: ADME, organism-based; settings: in vivo, dose 3 µg/ml
Klebsiella pneumoniae [25] = experiment: Hormesis activity against Klebsiella pneumonia assessed as inhibition of bacterial growth at 25 to 50 ug/ml measured for 24 hrs in presence of 2 ug/ml tetracycline by OD600 based analysis; assay type: functional, organism-based; settings: dose 25-50 µg/ml
Klebsiella pneumoniae [26] = experiment: Hormesis activity against overnight compound-treated Klebsiella pneumoniae assessed as increase in antibiotic MIC by measuring tetracycline MIC at 3 ug/ml incubated for 12 hrs by OD600 based analysis (reference value: 6 ug/ml); assay type: ADME, organism-based; settings: in vivo, dose 3 µg/ml
Enterobacter cloacae [27] = experiment: Hormesis activity against overnight compound-treated Enterobacter cloacae assessed as increase in antibiotic MIC by measuring hygromycinMIC at 3 ug/ml incubated for 12 hrs by OD600 based analysis (reference value: 25 ug/ml); assay type: ADME, organism-based; settings: in vivo, dose 3 µg/ml
Acinetobacter baumannii [28] = experiment: Hormesis activity against Acinetobacter baumannii assessed as increase in antibiotic MIC by measuring chloramphenicol MIC at 3 ug/ml incubated for 12 hrs by OD600 based analysis (reference value: 6.25 ug/ml); assay type: ADME, organism-based; settings: in vivo, dose 3 µg/ml

## COc1ccc2cc3[n+](cc2c1OC)CCc1cc2c(cc1-3)OCO2 [BERBERINE]
Klebsiella pneumoniae [1]
  MIC: 0.7812 µg/mL
Enterobacter cloacae [2]
  MIC: 0.1562 µg/mL
Klebsiella pneumoniae [3]
  Activity: Non-Toxic
Klebsiella pneumoniae [4]
  MIC: 0.3962 µg/mL
Acinetobacter baumannii [5]
  MIC: 12.5 µg/mL
Klebsiella pneumoniae [6]
  MIC: 0.07812 µg/mL
Enterobacter cloacae [7]
  MIC: 6.25 µg/mL
Acinetobacter baumannii [8]
  MIC: 400 µg/mL
Klebsiella pneumoniae [9]
  MIC: 12.5 µg/mL
Klebsiella pneumoniae [10]
  Activity: Active
Acinetobacter baumannii [11]
  MIC: 6.25 µg/mL
Enterobacter cloacae [12]
  MIC: 3.125 µg/mL
Klebsiella pneumoniae [13]
  MIC: 1.5625 µg/mL
Klebsiella pneumoniae [14]
  MIC: 3.125 µg/mL
Acinetobacter baumannii [15]
  MIC: 240 µg/mL
Klebsiella pneumoniae [16]
  MIC: 0.3962 µg/mL
Acinetobacter baumannii [17]
  MIC: 6.25 µg/mL
Acinetobacter baumannii [18]
  Activity: Toxic
Acinetobacter baumannii [19]
  Activity: Toxic
Acinetobacter baumannii [20]
  MIC: 0.625 µg/mL
Klebsiella pneumoniae [21]
  MIC: 12.5 µg/mL
Acinetobacter baumannii [22]
  MIC: 360 µg/mL
Acinetobacter baumannii [23]
  MIC: 6.25 µg/mL
Klebsiella pneumoniae [24]
  MIC: 12.5 µg/mL
Klebsiella pneumoniae [25]
  Activity: Active
Klebsiella pneumoniae [26]
  MIC: 12 µg/mL
Enterobacter cloacae [27]
  MIC: 25 µg/mL
Acinetobacter baumannii [28]
  MIC: 6.25 µg/mL

— ChEMBL document CHEMBL4831545, “Hormesis Effect of Berberine against Klebsiella pneumoniae Is Mediated by Up-Regulation of the Efflux Pump KmrA” (J Nat Prod, 2021)
